Where two headings read alike, the source gives them in different places. Marks after values point to notes of the source that are not given here. Starred links: 1 amine or outer side, 2 acyl side, 3 side chain; linkers in the order of their positions; H or OH if unused. Non-standard residues stand in square brackets, D forms with d. Groups on a side chain read outwards from the residue. *: point of attachment. C20 diacid = O=C(O)CCCCCCCCCCCCCCCCCCC(=O)*; C18 diacid = O=C(O)CCCCCCCCCCCCCCCCC(=O)*; αMePhe(2-F) = C[C@](N)(Cc1ccccc1F)C(=O)O; γGlu = O=C(O)[C@H](CCC(=O)[*:2])N[*:1]; αMeY = C[C@](N)(Cc1ccc(O)cc1)C(=O)O; 4Pal = N[C@@H](Cc1ccncc1)C(=O)O; αMeL = CC(C)C[C@](C)(N)C(=O)O; αMeS = C[C@](N)(CO)C(=O)O; Orn = NCCC[C@H](N)C(=O)O; AEEA = NCCOCCOCC(=O)O; Aib = CC(C)(N)C(=O)O
Columns and labels:
hGcgR = hGcgR (Homo sapiens, UniProt P47871); assay: Functional cAMP activation in the presence of 0.1% casein (no HSA); type: cell-based; details: read-out: Relative cAMP EC50, hGcgR;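 also: intracellular cAMP rise after 30 min at 37 °C, read by HTRF against a cAMP standard curve, scaled from buffer only (0%) to maximal control ligand response (100%)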
hGIPR [1] = molecular target: T1, hGIPR (Homo sapiens, UniProt P48546); assay: Functional cAMP activity in the presence of 1% HSA; type: cell-based; details: read-out: cAMP Rel EC50, hGIPR
T1 sequence (P48546 22-466): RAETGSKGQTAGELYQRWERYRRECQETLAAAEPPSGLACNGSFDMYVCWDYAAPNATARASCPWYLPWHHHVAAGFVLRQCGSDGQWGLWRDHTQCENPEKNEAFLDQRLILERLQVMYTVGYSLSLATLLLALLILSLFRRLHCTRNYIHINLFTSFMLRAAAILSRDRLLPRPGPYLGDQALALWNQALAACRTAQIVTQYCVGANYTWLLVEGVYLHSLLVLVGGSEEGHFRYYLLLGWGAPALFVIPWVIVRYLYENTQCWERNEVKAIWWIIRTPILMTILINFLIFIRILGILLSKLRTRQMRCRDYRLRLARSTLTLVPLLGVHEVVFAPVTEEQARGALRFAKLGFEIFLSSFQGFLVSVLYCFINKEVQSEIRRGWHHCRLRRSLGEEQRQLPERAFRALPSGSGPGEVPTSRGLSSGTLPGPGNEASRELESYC

human GcgR = human GcgR (Homo sapiens, UniProt P47871); assay: Functional cAMP activity in the presence of 1% HSA; type: cell-based; details: read-out: cAMP Rel EC50, hGcgR
hGLP-1R [2] = molecular target: T2, hGLP-1R (Homo sapiens, UniProt P43220); assay: Functional cAMP activation in the presence of 0.1% casein (no HSA); type: cell-based; details: read-out: Relative cAMP EC50, hGLP-1R;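 also: intracellular cAMP rise after 30 min at 37 °C read by HTRF, normalized between buffer only (0%) and maximal control ligand (100%), four-parameter variable-slope fit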
human GLP1-R = human GLP1-R (Homo sapiens, UniProt P43220); assay: GLP1-R internalization assay in HEK293 cells; type: cell-based
hGLP-1R [3] = molecular target: T2, hGLP-1R; assay: Functional cAMP activity in the presence of 1% HSA; type: cell-based; details: read-out: cAMP Rel EC50, hGLP-1R
[4] = Body weight in diet-induced obese C57BL/6 mice; type: in vivo; details: percent of starting weight, DIO mice, mean ± SEM n=5
Experimental: To investigate the effect of the polypeptides as described herein on weight loss, exemplary polypeptides are dosed to C57BL/6 diet-induced obese (DIO) mice. Specifically, DIO male C57BL/6 mice (Taconic, Germantown, NY) maintained on a calorie-rich diet are used in the following studies. Mice are individually housed in a temperature-controlled (24° C.) facility with 12-hour light/dark cycle (lights on 22:00) and free access to food (TD95217) and water. After a minimum of 2 weeks acclimation to the facility, the mice are randomized according to their body weight, so each experimental group of animals would have similar starting body weight. The body weights range from 41 to 50 g. All groups contain 5 mice. […] Treatments are administered by subcutaneous (SC) injection (10 mL/kg) to ad libitum fed DIO mice 30 to 90 minutes prior to the onset of the dark cycle either once daily (QD) or once every 3 days (Q3D) for 9-16 days. Body weight and food intake are measured daily throughout the study. Body weight is presented as percent of the starting weight. […] Data are presented as mean±SEM of 5 animals per group in Table 7 below. Statistical analysis is performed using repeated measures ANOVA, followed by Dunnett's method comparison test.

hGIPR [5] = molecular target: T1, hGIPR; assay: Functional cAMP activation in the presence of 0.1% casein (no HSA); type: cell-based; details: read-out: Relative cAMP EC50, hGIPR;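 also: intracellular cAMP rise after 30 min at 37 °C read by HTRF against a standard curve, scaled between buffer alone (0%) and top control ligand concentration (100%), four-parameter fit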
[6] = in the presence of 0.1% casein (no HSA), geometric mean

T2 sequence (P43220 24-463): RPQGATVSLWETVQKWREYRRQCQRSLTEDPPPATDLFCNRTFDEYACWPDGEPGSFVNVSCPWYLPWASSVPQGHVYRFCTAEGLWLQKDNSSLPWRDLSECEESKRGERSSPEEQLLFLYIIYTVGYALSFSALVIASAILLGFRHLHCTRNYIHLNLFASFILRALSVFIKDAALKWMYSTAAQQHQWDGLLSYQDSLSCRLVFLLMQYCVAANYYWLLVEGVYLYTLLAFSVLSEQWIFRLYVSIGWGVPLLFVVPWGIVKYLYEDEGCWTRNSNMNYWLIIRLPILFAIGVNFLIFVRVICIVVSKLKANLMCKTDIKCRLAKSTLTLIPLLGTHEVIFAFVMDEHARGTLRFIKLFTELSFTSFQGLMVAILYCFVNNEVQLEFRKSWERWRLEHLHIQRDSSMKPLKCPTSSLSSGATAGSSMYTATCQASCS
human GcgR, sequence (P47871 26-477): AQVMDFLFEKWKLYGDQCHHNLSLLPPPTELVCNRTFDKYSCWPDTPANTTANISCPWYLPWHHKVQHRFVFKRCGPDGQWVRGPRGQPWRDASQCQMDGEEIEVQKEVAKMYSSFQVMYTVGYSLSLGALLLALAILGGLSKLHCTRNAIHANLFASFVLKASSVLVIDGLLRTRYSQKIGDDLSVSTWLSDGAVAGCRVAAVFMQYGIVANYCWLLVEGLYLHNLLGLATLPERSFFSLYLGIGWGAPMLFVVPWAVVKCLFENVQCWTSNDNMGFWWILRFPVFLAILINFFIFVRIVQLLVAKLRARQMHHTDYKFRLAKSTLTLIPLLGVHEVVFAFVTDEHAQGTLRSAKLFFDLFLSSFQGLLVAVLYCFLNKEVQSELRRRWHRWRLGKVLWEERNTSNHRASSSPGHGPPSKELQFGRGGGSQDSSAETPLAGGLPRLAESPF
hGcgR, sequence (P47871 26-477): as above
human GLP1-R, sequence (P43220 24-463): as the sequence (P43220 24-463) above

| Compound | EC50 (hGIPR [1]) [nM] | EC50 (human GcgR) [nM] | EC50 (human GLP1-R; HEK293 cells expressing SNAP-GLP-1R, read-out: GLP1R Internalization EC50) [nM] | Internalization % TOP (human GLP1-R; normalized to maximum concentration of GLP-1 (100%)) [%] | EC50 (hGLP-1R [3]) [nM] | EC50 (hGcgR) [nM] | EC50 (hGLP-1R [2]) [nM] | EC50 (hGIPR [5]) [nM] | EC50 (hGcgR; [6]) [nM] | EC50 (hGLP-1R [2]; [6]) [nM] | Body weight (%) ([4]; 10 nmol/kg SC Q3D, 14 days) | EC50 (hGIPR [5]; [6]) [nM] | Body weight (%) ([4]; 10 nmol/kg SC QD, 15 days) | Body weight (%) ([4]; 10 nmol/kg SC QD, 9 days) |
| --- | --- | --- | --- | --- | --- | --- | --- | --- | --- | --- | --- | --- | --- | --- |
| H-Y[Aib]QGTFTSDFSK[αMeL]LDKK([AEEA-γGlu-C20 diacid])AQ[Aib]AFIEYLLAGAPSSGEPPPSEG-NH2 [Example 24] | – | – | – | – | – | – | – | – | – | – | 86.10 +/− 1.98**** % | – | – | – |
| H-Y[Aib]QGT[αMePhe(2-F)]TSDYSKLLDKIAQK([AEEA-γGlu-C20 diacid])AFIEYLIEGGPSSGAPPPSEG-NH2 [Example 339] | 28.8 | 1510 | – | – | 192 | – | – | – | 6.81 | 1.06 | 82.36 +/− 3.01**** % | 0.101 | – | – |
| H-Y[Aib]QGT[αMePhe(2-F)]TSD[4Pal][αMeS]I[αMeL]LD[Orn]K([AEEA-AEEA-γGlu-C18 diacid])AQ[Aib][Orn]FI[dE][αMeY]LIEGGPSSGEPPPSEG-NH2 [Example 490] | 0.861 | 262 | – | – | 9.8 | 3.05 | 0.183 | 0.0159 | – | – | – | – | – | 80.75 ± 3.23 |

Continued, in another order:

| EC50 (hGIPR [1]) [nM] | EC50 (human GcgR) [nM] | EC50 (human GLP1-R; HEK293 cells expressing SNAP-GLP-1R, read-out: GLP1R Internalization EC50) [nM] | Internalization % TOP (human GLP1-R; normalized to maximum concentration of GLP-1 (100%)) [%] | EC50 (hGLP-1R [3]) [nM] | EC50 (hGcgR) [nM] | EC50 (hGLP-1R [2]) [nM] | EC50 (hGIPR [5]) [nM] | Compound | EC50 (hGcgR; [6]) [nM] | EC50 (hGLP-1R [2]; [6]) [nM] | Body weight (%) ([4]; 10 nmol/kg SC Q3D, 14 days) | EC50 (hGIPR [5]; [6]) [nM] | Body weight (%) ([4]; 10 nmol/kg SC QD, 15 days) | Body weight (%) ([4]; 10 nmol/kg SC QD, 9 days) |
| --- | --- | --- | --- | --- | --- | --- | --- | --- | --- | --- | --- | --- | --- | --- |
| 70.1 | 1350 | 129 | 57 | 493 | – | – | – | CC[C@H](C)[C@H](NC(=O)[C@H](Cc1ccccc1)NC(=O)[C@H](C)NC(=O)C(C)(C)NC(=O)[C@H](CCC(N)=O)NC(=O)[C@H](C)NC(=O)[C@H](CCCCNC(=O)COCCOCCNC(=O)CC[C@H](NC(=O)CCCCCCCCCCCCCCCCCCC(=O)O)C(=O)O)NC(=O)[C@H](CCCCN)NC(=O)[C@H](CC(=O)O)NC(=O)[C@H](CC(C)C)NC(=O)[C@](C)(CC(C)C)NC(=O)[C@H](CCCN)NC(=O)[C@H](CO)NC(=O)[C@H](Cc1ccccc1)NC(=O)[C@H](CC(=O)O)NC(=O)[C@H](CO)NC(=O)[C@@H](NC(=O)[C@H](Cc1ccccc1)NC(=O)[C@@H](NC(=O)CNC(=O)[C@H](CCC(N)=O)NC(=O)C(C)(C)NC(=O)[C@@H](N)Cc1ccc(O)cc1)[C@@H](C)O)[C@@H](C)O)C(=O)N[C@@H](CCC(=O)O)C(=O)N[C@@H](Cc1ccc(O)cc1)C(=O)N[C@@H](CC(C)C)C(=O)N[C@@H](CC(C)C)C(=O)N[C@@H](C)C(=O)NCC(=O)NCC(=O)N1CCC[C@H]1C(=O)N[C@@H](CO)C(=O)N[C@@H](CO)C(=O)NCC(=O)N[C@@H](CCC(=O)O)C(=O)N1CCC[C@H]1C(=O)N1CCC[C@H]1C(=O)N1CCC[C@H]1C(=O)N[C@@H](CO)C(=O)N[C@@H](CCC(=O)O)C(=O)NCC(N)=O [Example 29] | 11.1 | 3.56 | 75.96 +/− 3.77**** % | 0.35 | – | – |
| 0.846 | 240 | – | – | – | 2.44 | 0.235 | 0.0118 | CC[C@H](C)[C@H](NC(=O)[C@H](CC(C)C)NC(=O)[C@](C)(Cc1ccc(O)cc1)NC(=O)[C@@H](CCC(=O)O)NC(=O)[C@@H](NC(=O)[C@H](Cc1ccccc1)NC(=O)[C@H](CC(N)=O)NC(=O)C(C)(C)NC(=O)[C@H](CCC(N)=O)NC(=O)[C@H](C)NC(=O)[C@H](CCCCNC(=O)CC[C@H](NC(=O)CC[C@H](NC(=O)CCCCCCCCCCCCCCCCC(=O)O)C(=O)O)C(=O)O)NC(=O)[C@H](CCCN)NC(=O)[C@H](CC(=O)O)NC(=O)[C@H](CC(C)C)NC(=O)[C@](C)(CC(C)C)NC(=O)[C@@H](NC(=O)[C@](C)(CO)NC(=O)[C@H](Cc1ccncc1)NC(=O)[C@H](CC(=O)O)NC(=O)[C@H](CO)NC(=O)[C@@H](NC(=O)[C@](C)(Cc1ccccc1F)NC(=O)[C@@H](NC(=O)CNC(=O)[C@H](CCC(N)=O)NC(=O)C(C)(C)NC(=O)[C@@H](N)Cc1ccc(O)cc1)[C@@H](C)O)[C@@H](C)O)[C@@H](C)CC)[C@@H](C)CC)C(=O)N[C@@H](CCC(=O)O)C(=O)NCC(=O)NCC(=O)N1CCC[C@H]1C(=O)N[C@@H](CO)C(=O)N[C@@H](CO)C(=O)NCC(=O)N[C@@H](CCC(=O)O)C(=O)N1CCC[C@H]1C(=O)N[C@@H](CCC(=O)O)C(=O)N1CCC[C@H]1C(=O)N[C@@H](CCC(=O)O)C(N)=O [Example 452] | – | – | – | – | 74.13 ± 4.11 | – |

From patent publication US20240270821A1, “GIP/GLP1/GCG TRI-RECEPTOR AGONISTS AND USES THEREOF” (priority 2023, published 2024)
